Assay results from patent publication US5436246A, “Serotonin receptor agents” (priority 1993, dated 1995).
Counter-ions that a name gives are not always drawn. Like-named read-outs stand apart in the source and are kept apart here.

What was measured:
5HT1A receptor = target: T1, 5HT1A receptor (Rattus norvegicus, UniProt P19327); assay: 5HT1A receptor binding affinity (procedure of Gozlan et al.)
T1 sequence (P19327 1-422): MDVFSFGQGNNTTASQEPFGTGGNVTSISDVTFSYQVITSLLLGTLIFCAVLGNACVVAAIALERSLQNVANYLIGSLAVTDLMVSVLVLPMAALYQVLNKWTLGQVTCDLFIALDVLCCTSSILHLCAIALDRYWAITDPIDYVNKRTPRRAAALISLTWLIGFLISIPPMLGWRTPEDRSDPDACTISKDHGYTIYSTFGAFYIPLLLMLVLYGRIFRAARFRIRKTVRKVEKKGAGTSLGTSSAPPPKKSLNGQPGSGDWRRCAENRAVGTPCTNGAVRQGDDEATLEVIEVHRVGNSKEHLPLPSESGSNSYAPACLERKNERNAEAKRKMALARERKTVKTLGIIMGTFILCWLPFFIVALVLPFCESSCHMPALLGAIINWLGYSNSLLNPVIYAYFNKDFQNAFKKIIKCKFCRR
Method: In the following examples, the compounds binding affinity for both the 5HT1A receptor and 5HT1D receptors is reported. The compounds affinity for the 5HT1D site was determined by the binding procedure of Peroutka et al as reported in European Journal of Pharmacology, Vol. 163 at pages 133-166 (1989). The compounds affinity for the 5HT1A receptor was determined by the procedure of Gozlan et al., as reported in Nature, Volume 305, at pages 140-142 (1983). Where multiple determinations of the binding affinity have been performed, the average is given followed by the number of determinations in parentheses. Also, the PA2 value for the saphenous vein preparation as described in this application is given, followed by the intrinsic (agonist) activity in parentheses, expressed as a percentage. [drawing 10] […]

5HT1D receptor = target: T2, 5HT1D receptor (Bos taurus, UniProt F1MGM3); assay: 5HT1D receptor binding affinity (procedure of Peroutka et al.)
T2 construct: from tissue
T2 sequence (F1MGM3 1-403): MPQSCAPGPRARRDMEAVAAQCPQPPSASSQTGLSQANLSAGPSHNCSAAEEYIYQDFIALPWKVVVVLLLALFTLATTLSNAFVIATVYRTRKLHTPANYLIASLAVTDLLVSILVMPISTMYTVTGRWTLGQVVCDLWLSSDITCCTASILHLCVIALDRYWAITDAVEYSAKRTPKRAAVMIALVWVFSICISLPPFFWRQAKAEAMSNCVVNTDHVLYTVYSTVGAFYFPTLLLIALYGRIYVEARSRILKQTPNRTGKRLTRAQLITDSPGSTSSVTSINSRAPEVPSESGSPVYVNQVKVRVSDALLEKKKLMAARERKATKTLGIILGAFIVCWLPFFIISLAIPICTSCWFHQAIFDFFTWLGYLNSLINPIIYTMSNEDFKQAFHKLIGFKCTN
Method: The compounds affinity for the 5HT1D site was determined by the binding procedure of Peroutka et al as reported in European Journal of Pharmacology, Vol. 163 at pages 133-166 (1989). […] Where multiple determinations of the binding affinity have been performed, the average is given followed by the number of determinations in parentheses.

5-HT1D receptors = 5-HT1D receptors (Canis lupus familiaris, UniProt P79250); design: species or system dog (canine)
Sequence of 5-HT1D receptors (P79250 whole entry): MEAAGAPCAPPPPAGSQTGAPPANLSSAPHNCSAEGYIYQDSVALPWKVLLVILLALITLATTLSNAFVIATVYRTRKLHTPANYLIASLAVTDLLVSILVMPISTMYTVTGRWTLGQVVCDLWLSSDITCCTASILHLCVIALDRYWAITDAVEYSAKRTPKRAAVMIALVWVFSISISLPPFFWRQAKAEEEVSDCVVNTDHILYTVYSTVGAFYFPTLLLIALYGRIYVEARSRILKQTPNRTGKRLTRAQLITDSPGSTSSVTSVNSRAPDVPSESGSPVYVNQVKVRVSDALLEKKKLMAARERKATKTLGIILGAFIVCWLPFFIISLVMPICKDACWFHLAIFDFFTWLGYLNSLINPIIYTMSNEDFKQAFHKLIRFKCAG
Method: In the following examples, the compounds binding affinity for both the 5HT1A receptor and 5HT1D receptors is reported. The compounds affinity for the 5HT1D site was determined by the binding procedure of Peroutka et al as reported in European Journal of Pharmacology, Vol. 163 at pages 133-166 (1989). The compounds affinity for the 5HT1A receptor was determined by the procedure of Gozlan et al., as reported in Nature, Volume 305, at pages 140-142 (1983). Where multiple determinations of the binding affinity have been performed, the average is given followed by the number of determinations in parentheses. Also, the PA2 value for the saphenous vein preparation as described in this application is given, followed by the intrinsic (agonist) activity in parentheses, expressed as a percentage. [drawing 10]
We have used canine saphenous vein for studying 5-HT1D receptors which is similar, although not totally identical, to human coronary 5-HT1D receptors (see Humphrey, P. P. A., Feniuk, W., Perren, M. J., Connor, H. E., Oxford, A. W., Coates, I. H. and Butina, D.: GR43175, a selective agonist for the 5-HT1 -like receptor in dog isolated saphenous vein, Br. J. Pharmacol. 94:1123-1132, 1988; Kaumann, A. J.: Human heart 5-HT receptors, Second international symposium on serotonin, from cell biology to pharmacology and therapeutics, Houston, Sep. 15-18, 1992).
Mongrel dogs weighing 12-18 kg were killed by an intravenous injection of an overdose of sodium pentobarbitol. Saphenous veins were isolated, removed, cleaned of surrounding connective tissue, and cut into helical strips in a dish containing Krebs-Henseleit solution with the following composition in mM: NaCl, 110.0; KCl, 4.8; CaCl2, 2.5; KH2 PO4, 1.2; EDTA(NaEDTA), 0.027; and was constantly bubbled with 95% O2 -5% CO2. Unless otherwise specified, the endothelium of the […] was removed by rubbing with a metal rod. The intactness or absence of functional endothelium was checked by the presence or absence of a relaxant effect of acetycholine (10^-5 M) in phenylephrine-contracted tissues (see Furchgott, R. F. and Zawadzki, J. V.: The obligatory role of endothelial cells in the relaxtion of arterial smooth muscle by acetycholine, Nature 288:373-376, 1980). Each muscle strip (3×30 mm) was set up in a tissue bath at 37° C. and loaded with 2 gram tension. Contractility of the tissues was measured isometrically with a Grass FT03 force-displacement transducer and recorded on a Strip chart recorder. The tissues were allowed to stabilize for 2 hours before the experiment was started, during which time they were washed repeatedly. Tissues were contracted with 3.162×10^-6 M phenylephrine and 40 mM KCl, which produced 60-70% of their maximum contractile responses, to condition the tissue. 5-HT dose response experiment was conducted. Test compounds were then incubated with the tissue before a second 5-HT dose response experiment was performed. Data are expressed as the pA2 value, the negative logarithm of the molar concentration of antagonist which produced a 2 fold shift in ED50 values of 5-HT dose response curves (see Van Rossum, J. M.: Cumulative dose-response curve: Technique for the making of dose-response curves in isolated organs and the evaluation of drug parameters, Arch. Int. Pharmacodyn. Ther. 143:299-330, 1963).

[1] = average of multiple determinations where number in parentheses is given, read-out: IC50 (5HT1A Binding Affinity)
[2] = average of multiple determinations where number in parentheses is given, read-out: IC50 (5HT1D Binding Affinity)

IC50 (5HT1A receptor; [1]) [nM]	IC50 (5HT1D receptor; [2]) [nM]	SMILES	IC50 (5HT1A receptor) [nM]	IC50 (5HT1D receptor) [nM]	also measured
> 1000	> 1000	CCOC(=O)c1cc2c(N3CCN(Cc4ccccc4)CC3)cccc2s1 [Example 1, ethyl-4-[4-(phenylmethyl)-1-piperazinyl]benzo[b]thiophene-2-carboxylate monohydrochloride]			
35	760	OCc1cc2c(N3CCN(Cc4ccccc4)CC3)cccc2s1 [Example 2, 4-[4-(phenylmethyl)-1-piperazinyl]-benzo[b]thiophene-2-methanol monohydrochloride]			
180	> 1000	N#Cc1cc2c(N3CCN(Cc4ccccc4)CC3)cccc2s1 [Example 3, 4-[4-(phenylmethyl)-1-piperazinyl]-benzo[b]thiophene-2-nitrile monohydrochloride]			
1.6	52	NC(=O)c1cc2c(N3CCN(Cc4ccccc4)CC3)cccc2s1 [Example 4, 4-[4-(phenylmethyl)-1-piperazinyl]-benzo[b]thiophene-2-carboxamide monohydrochloride]			
		CCOC(=O)c1cc2c(N3CCNCC3)cccc2s1 [Example 5, ethyl 4-(1-piperazinyl)-benzo[b]thiophene-2-carboxylate monohydrochloride]	89	47	
37	108	CCOC(=O)c1cc2c(N3CCN(CCc4ccccc4)CC3)cccc2s1 [Example 6, ethyl-4-[4-(2-phenylethyl)-1-piperazinyl]-benzo[b]thiophene-2-carboxylate monohydrochloride]			
		N#Cc1cc2c(N3CCN(CCc4ccccc4)CC3)cccc2s1 [Example 8, 4-[4-(2-phenylethy-1-piperazinyl]-benzo[b]thiophene-2-nitrilemonohydrochloride]	4	18	
239	551	CCOC(=O)c1cc2c(N3CCN(CCCc4ccccc4)CC3)cccc2s1 [Example 14, ethyl-4-[4-(3-phenylpropyl)-1-piperazinyl]-benzo[b]thiophene-2-carboxylatemonohydrochloride]			
21	173	N#Cc1cc2c(N3CCN(CCCc4ccccc4)CC3)cccc2s1 [Example 16, 4-[4-(3-phenylpropyl)-1-piperazinyl]-benzo[b]thiophene-2-nitrile monohydrochloride]			
		OCc1cc2c(N3CCN(CCc4ccc(Cl)cc4)CC3)cccc2s1 [Example 19, 4-[4-[2-(4-chlorophenyl)ethyl]-1-piperazinyl]-benzo[b]thiophene-2-methanolmonohydrochloride]	2	10	
		OCc1cc2c(N3CCN(CCc4ccc(F)cc4)CC3)cccc2s1 [Example 23, 4-[4-[2-(4-fluorophenyl)ethyl]-1-piperazinyl]-benzo[b]thiophene-2-methanolmonohydrochloride]	3	3	
		NC(=O)c1cc2c(N3CCN(CCc4ccc(F)cc4)CC3)cccc2s1 [Example 25, 4-[4-[2-(4-fluorophenyl)ethyl]-piperazinyl]-benzo[b]-thiophene-2-carboxamide monohydrochloride]	0.8	6	
		Cc1ccc(CCN2CCN(c3cccc4sc(CO)cc34)CC2)cc1 [Example 27, 4-[4-[2-(4-methylphenyl)-ethyl]-1-piperazinyl]-benzo[b]thiophene-2-methanol monohydrochloride]	3	1	
		Cc1ccc(CCN2CCN(c3cccc4sc(C#N)cc34)CC2)cc1 [Example 28, 4-[4-[2-(4-methylphenyl)ethyl]-1-piperazinyl]-benzo[b]thiophene-2-nitrile monohydrochloride]	4	56	
74	73	CCOC(=O)c1cc2c(N3CCN(CCc4ccc(OC)cc4)CC3)cccc2s1 [Example 30, ethyl-4-[4-[2-(4-methoxyphenyl)ethyl]-1-pierazinyl]-benzo-[b]thiophene-2-carboxylate monohydrochloride]			
		COc1ccc(CCN2CCN(c3cccc4sc(CO)cc34)CC2)cc1 [Example 31, 4-[4-[2-(4-methoxyphenyl)ethyl]-1-piperazinyl]-benzo[b]thiophene-2-methanol monohydrochloride]	1	2	
		Cc1c(CO)sc2cccc(N3CCN(CCc4ccccc4)CC3)c12 [Example 33, 4-[4-(2,phenylethyl)-1-piperazinyl]-benzo[b]-thiophene-3-methyl-2-methanol monhydrochloride 0.5 hydrate]	9	31	
34	66	CCCN1CCN(c2cccc3sc(CO)cc23)CC1 [Example 35, 4-[(4-propyl)-1-piperazinyl]benzo[b]thiophene-2-methanol hydrochloride]			
		CN1CCN(c2cccc3sc(CO)cc23)CC1 [Example 39, 4-[4-methyl-1-piperazinyl]-benzo[b]thiophene-2-methanol hydrochloride]		16	
		CC(O)c1cc2c(N3CCN(CCc4ccccc4)CC3)cccc2s1 (centres unmarked) [Example 43, 1-[4-(4-phenethyl-piperazin-1-yl)-benzo[b]thiophen-2-yl]ethanol hydrochloride]	0.5	3	
		COCc1cc2c(N3CCNCC3)cccc2s1 [Example 45, 4-(1-piperazinyl)-benzo[b]thiophene-2-methoxymethyl hydrochloride hemihydrate]		4	
		CNC(=O)c1cc2c(N3CCNCC3)cccc2s1 [Example 49, 4-(1-piperazinyl)benzol[b]-thiophene-2-(N-methyl)carboxamide dihydrochloride hydrate]		8.4	
1	6	O=[N+]([O-])c1ccc(CCN2CCN(c3cccc4sc(CO)cc34)CC2)cc1 [Example 50, 4-[4-[2-(4-nitrophenyl)ethyl]-1-piperazinyl]-benzo[b]thiophene-2-methanol hydrochloride]			
		NCc1cc2c(N3CCN(CCc4ccccc4)CC3)cccc2s1 [Example 55, 4-[4-(2-phenylethyl)-1-piperazinyl]-benzo[b]thiophene-2-methanamine dihydrochloride]	3	12	
		OCC=Cc1cc2c(N3CCN(CCc4ccccc4)CC3)cccc2s1 [Example 59, 3-[4-(4-phenethyl-piperazin-1-yl)-benzo[b]thiophen-2-yl]-prop-2-en-1-ol hydrochloride]			Kb (5-HT1D receptors): 0.55 nM; Emax (5-HT1D receptors; dog, read-out: intrinsic (agonist) activity, saphenous vein preparation): 0%
